Laboratory results as given in US20170112866A1, “ANTI-TUMOR AGENT CONTAINING TAXANE COMPOUND, AND ANTI-TUMOR EFFECT ENHANCER” (Taiho Pharmaceutical Company Limited, priority 2014, published 2017).

Assays:
[1] = tested on: human gastric cancer cell line (SC-2); assay: Anti-tumor effect on SC-2 transplanted to nude mice (RTV, IR); assay type: in vivo; details: Day 29, tail vein, Day 1 and Day 8
Protocol: The FTD•TPI combination drug (a mixture of FTD and TPI at a molar ratio of 1:0.5) was prepared for administration at a dose of 150 mg/kg/day in terms of FTD. Paclitaxel (TXL, Wako Pure Chemical Industries, Ltd.) was prepared for administration at doses of 5 and 20 mg/kg/day. The FTD•TPI combination drug was orally administered on Days 1 to 14 consecutively, and paclitaxel was administered through the tail vein on Day 1 and Day 8. In the combination administration groups, the doses and administration schedules of the FTD•TPI combination drug and paclitaxel were the same as those of the corresponding monotherapy groups.
As an index of the anti-tumor effect, the TVs on Days 3, 7, 12, 15, 19, 22, 26, and 29 were calculated in each group. In accordance with the following equation, the relative tumor volume (RTV) to that on Day 0 was calculated and compared with the RTV of the untreated group (control).
TV (mm^3)=(long diameter×short diameter^2)/2
RTV=(TV on Day 29)/(TV on Day 0)
The RTVs were plotted on the indicated measurement days, and RTV changes over days in the control group, the FTD•TPI combination drug administration group, the paclitaxel administration group, and the combination administration group of the FTD•TPI combination drug and paclitaxel were compared.
The tumor growth inhibition rate (IR) on Day 29 on the basis of RTV values was calculated in accordance with the following equation.
IR (%)=[1−(mean RTV value of treated group)/(mean RTV value of control group)]×100

[2] = mouse, in vivo
Protocol: (§1) A human gastric cancer cell line (SC-2) was transplanted to the right chest of 5 to 6-week-old BALB/cA Jcl-nu mice. After the tumor transplantation, the long diameter (mm) and the short diameter (mm) of the tumor were measured, and the tumor volume (TV) was calculated. […] Paclitaxel was administered at doses of 10, 20, and 30 mg/kg/day on Days 1 and 8.

[3] = Paclitaxel dose finding in SC-2-bearing mice (Reference Example 2); details: doses 10, 20, 30 mg/kg/day on Days 1 and 8 tested
Protocol: as §1

SMILES: CC(=O)O[C@H]1C(=O)[C@@]2(C)[C@H]([C@H](OC(=O)c3ccccc3)[C@]3(O)C[C@H](OC(=O)[C@H](O)[C@@H](NC(=O)c4ccccc4)c4ccccc4)C(C)=C1C3(C)C)[C@]1(OC(C)=O)CO[C@@H]1C[C@@H]2O [Paclitaxel (TXL), (−)-(1S,2S,3R,4S,5R,7S,8S,10R,13S)-4,10-diacetoxy-2-benzoyloxy-5,20-epoxy-1,7-dihydroxy-9-oxotax-11-en-13-yl(2R,3S)-3-benzoylamino-2-hydroxy-3-phenylpropionate]
- IR (tumor growth inhibition rate) ([1]; paclitaxel 5 mg/kg/day): 27.1%
- RTV (mean ± SD) ([1]; paclitaxel 5 mg/kg/day): 44.97 ± 1.78
- IR (tumor growth inhibition rate) ([1]; paclitaxel 20 mg/kg/day): 83.6%
- RTV (mean ± SD) ([1]; paclitaxel 20 mg/kg/day): 10.13 ± 2.94
- mice deceased [2]: four of the six mice deceased
- recommended dose for mice [3]: 20 mg/kg/day
